According to patent US20110263454A1, “Methods of Identifying Functional Characteristics of Promoters, Transcription Modifying Proteins and Transcription Modulating Agents” (Salk Institute for Biological Studies, priority 2008, published 2011):

B1: DAX-1: DAX1 (NR0B1), cDNA driver (protein, UniProt P51843 1-470, looked up)
Nuclear receptor subfamily 0 …: MAGENHQWQGSILYNMLMSAKQTRAAPEAPETRLVDQCWGCSCGDEPGVGREGLLGGRNVALLYRCCFCGKDHPRQGSILYSMLTSAKQTYAAPKAPEATLGPCWGCSCGSDPGVGRAGLPGGRPVALLYRCCFCGEDHPRQGSILYSLLTSSKQTHVAPAAPEARPGGAWWDRSYFAQRPGGKEALPGGRATALLYRCCFCGEDHPQQGSTLYCVPTSTNQAQAAPEERPRAPWWDTSSGALRPVALKSPQVVCEAASAGLLKTLRFVKYLPCFQVLPLDQQLVLVRNCWASLLMLELAQDRLQFETVEVSEPSMLQKILTTRRRETGGNEPLPVPTLQHHLAPPAEARKVPSASQVQAIKCFLSKCWSLNISTKEYAYLKGTVLFNPDVPGLQCVKYIQGLQWGTQQILSEHTRMTHQGPHDRFIELNSTLFLLRFINANVIAELFFRPIIGTVSMDDMMLEMLCTKI
B2: SHP: Small Heterodimer Partner (NR0B2), cDNA driver (protein, UniProt Q15466 1-257, looked up)
Nuclear receptor subfamily 0 …: MSTSQPGACPCQGAASRPAILYALLSSSLKAVPRPRSRCLCRQHRPVQLCAPHRTCREALDVLAKTVAFLRNLPSFWQLPPQDQRRLLQGCWGPLFLLGLAQDAVTFEVAEAPVPSILKKILLEEPSSSGGSGQLPDRPQPSLAAVQWLQCCLESFWSLELSPKEYACLKGTILFNPDVPGLQAASHIGHLQQEAHWVLCEVLEPWCPAAQGRLTRVLLTASTLKSIPTSLLGDLFFRPIIGDVDIAGLLGDMLLLR

Assays:
[1] = system: hIFNg promoter; experiment: NHR-promoter luciferase screen, hIFNg promoter; format: cell-based, human; conditions: for Luc. act., normalized to lacZ / Normalized Luc. act., normalized to control: IFNg promoter, HR component without or with ligand; for hIFNg promoter reporter activity: transcription factor +/- ligand, control = 1.00
Procedure, shortened: (§1)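 CV-1 cells were co-transfected with 50 ng NHR (homodimer or NHR/RXR heterodimer), 100 ng promoter-luciferase construct and 50 ng LacZ. Luciferase was normalized to LacZ and to a no-NHR/no-ligand control.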

[2] = system: FGF1D promoter; experiment: FGF family promoter luciferase reporter screen by NHRs, FGF1D; format: cell-based, human; conditions: FIG. 43, in words
From the text: (§2) Screening for FGF regulation by NHRs. The methods described herein provide a straightforward, high throughput, sensitive and quantitative strategy to identify therapeutic agonists and antagonists that can predictably modulate FGF and FGFR expression for therapeutic benefit. Promoter constructs were designed and screened for all 22 members of the FGF-family for novel regulation by the NHRs. Of particular interest is the strong and specific transcriptional regulation of FGF1A, one of the alternative splice variants of FGF1, by PPARγ (FIG. 43). The FGF 1 gene is regulated by at least three (A, B and D) different promoters. Alternative splicing of these promoters to the three exons of the FGF1 gene results in identical but differentially expressed FGF1 polypeptides (FIG. 44). FGF1A is highly expressed in heart, kidney and adipose, FGF1B is highly expressed in brain and FGF1D is highly expressed in liver.

[3] = system: hG6PD promoter; experiment: NHR-promoter luciferase screen, hG6PD promoter; format: cell-based, human; conditions: for Luc. act., normalized to lacZ / Normalized Luc. act., normalized to control: G6PD promoter reporter, co-transfected HR, without or with its ligand; for Normalized Luc. act., normalized to control: relative to control; for luciferase activity normalized to lacZ activity and to a control, hG6PD: hG6PD promoter-luciferase, CV-1 cells, NHR +/- ligand, control = 1.00
Procedure, shortened: as §1

[4] = system: FGF1A promoter; experiment: FGF family promoter luciferase reporter screen by NHRs, FGF1A; format: cell-based, human; conditions: FIG. 43, in words
From the text: as §2
FGF1A promoter analysis. To gain more insight into the regulation of the FGF1A promoter by PPARγ, the putative PPRE was localized. […] The evolutionary conservation of FGF1A was determined and found to be highly conserved in a wide range of mammals (bovine, canine, horse, chimpanzee, human, orangutan, rat, mouse, and opossum). […] In addition to a strong conservation of the PPRE in this promoter, several other highly conserved elements were detected (e.g. SP1, HMTB, EVI1 and E-box).

[5] = system: mADRP promoter; experiment: NHR-promoter luciferase screen, mADRP promoter; format: cell-based, mouse; conditions: for Luc. act., normalized to lacZ / Normalized Luc. act., normalized to control: ADRP promoter, HR/ligand component; for mADRP promoter reporter activity: transcription factor +/- ligand, control = 1.00
Procedure, shortened: as §1

Molecule	Luc. act., normalized to lacZ [1]	Normalized Luc. act., normalized to control [1]	hIFNg promoter reporter activity [1]	activation of FGF1D promoter, luciferase reporter assay [2]	Luc. act., normalized to lacZ [3]	Normalized Luc. act., normalized to control [3]	luciferase activity normalized to lacZ activity and to a control, hG6PD [3]	activation of FGF1A promoter, luciferase reporter assay [4]	Luc. act., normalized to lacZ [5]	Normalized Luc. act., normalized to control [5]	mADRP promoter reporter activity [5]
PPARg: Peroxisome proliferator activated receptor γ (NR1C3), cDNA driver	24.04	1.5	1.51	moderate activation	66.0	1.8	1.77	strong activation	891.4	1.8	1.79
LXRa: Liver X Receptor α (NR1H3), cDNA driver	24.59	1.5	1.55	moderate activation	60.5	1.6	1.62		1095.7	2.2	2.20
B1	24.7	1.6	1.55		46.0	1.2	1.23		419.9	0.8	0.84
B2	16.0	1.0	1.01		43.2	1.2	1.15		421.4	0.8	0.85
